Assay results taken from paper PMC6959985 (Analytical chemistry, 2019).
Where no end group is shown, it is not given here.

T1: KLHDC2 (Homo sapiens, UniProt Q9Y2U9)
T1 sequence (Q9Y2U9 1-406): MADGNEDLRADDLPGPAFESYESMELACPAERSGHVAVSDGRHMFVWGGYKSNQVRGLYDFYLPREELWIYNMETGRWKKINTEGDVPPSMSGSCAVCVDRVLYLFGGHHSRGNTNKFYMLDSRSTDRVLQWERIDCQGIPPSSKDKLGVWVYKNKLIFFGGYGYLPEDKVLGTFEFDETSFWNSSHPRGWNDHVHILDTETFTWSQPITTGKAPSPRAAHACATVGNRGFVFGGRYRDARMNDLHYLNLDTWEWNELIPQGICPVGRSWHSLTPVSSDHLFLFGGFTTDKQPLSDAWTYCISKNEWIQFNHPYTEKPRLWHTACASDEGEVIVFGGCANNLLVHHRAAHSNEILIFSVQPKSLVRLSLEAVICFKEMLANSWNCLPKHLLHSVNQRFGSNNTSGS

T2: KLHDC2 (as used in the AlphaScreen competition assay) (human, UniProt Q9Y2U9 1-406)
T2 sequence (looked up): T1 sequence (Q9Y2U9 1-406)

B1: synthesized peptide F (ASDEGEVIVFGG) (peptide)
peptide: ASDEGEVIVFGG

Experiments:
KLHDC2 [1] = target: T1, KLHDC2
KLHDC2 [2] = target: T1, KLHDC2; settings: recently characterized selenoprotein fragment, comparison value; ref [19]; cited from earlier work
KLHDC2 [3] = target: T1, KLHDC2; assay: Luminescence-based competition assay; settings: discussion of binding of both peptides; HLRGSPPPMAGG characterized in ref [19]
[4] = target: T2, KLHDC2 (as used in the AlphaScreen …); assay: AlphaScreen or HTRF

| Molecule | Identification as interacting peptide by native top-down MS (KLHDC2 [1]) | other results |
| --- | --- | --- |
| EKGGGSGGG | identified using native top-down MS |  |
| HLRGSPPPMAGG |  | IC50 (KLHDC2 [2]): 3.4 nM; Binding to KLHDC2 (KLHDC2 [3]): extremely tight binding |
| ASDEGEVIVFGG [ASDEGEVIVFGG] | identified using native top-down MS |  |
| GGGSGGG | identified using native top-down MS |  |
| B1 |  | IC50 [4]: 5.3 nM |
